Assay results from patent US20150351394A1, “BACTERICIDAL COMPOSITION CONTAINING FLUAZINAM” (Shenzhen Noposion Agrochemicals Co., Ltd., priority 2014, published 2015).

Key:
[1] = tested on: pepper phytophthora capsici; assay: Indoor toxicity test on potted pepper seedlings inoculated with pepper phytophthora capsici (NY/T1156.11-2008); assay type: in vivo; conditions: single active compound, survey 8 days after inoculation
Procedure: The pepper phytophthora capsici is acted as test object.
Test methods: referring to the “Republic of China agricultural industry standard NY/T1156.11-2008”, selecting growing consensus potted pepper seedlings, selecting five pots per test object with respective number for use, spraying five milliliters for each pot by a Potter spray tower in a pressure of 50 PSI. The test results are shown in Tables 1 and 2 and each test pesticide is provided with five concentration gradients. After 24 hours, five millimeters pepper phytophthora capsici mycelium blocks are inoculated into the objects. Pepper seedlings with an equal amount of water spraying are selected as the blank control. After inoculation, pepper seedlings are shifted into light moisturizer cabinets for culture. After 8 days, in accordance with grading standards of incidence of pepper phytophthora blights, the disease indexes are surveyed and the control effects are calculated.
Capsici disease classification criteria:
0 level: no lesion on the leaves;
1 level: lesion area of the total leaf area is 5% or less;
3 level: lesion area of the total leaf area is from 6% to 10%;
5 level: lesion area of the total leaf area is from 11% to 25%;
7 level: lesion area of the total leaf area is from 25% to 50%;
9 level: lesion area of the total leaf area is 50% or more.
Disease index=[Σ(leaf quantity in each level×respective level number)×100]/(Total quantity of tested leaves×9).
Control effect (%)=[(blank disease index−treated disease index)]×100]/blank disease index.
Expected effect of a mixture of the active ingredients (i.e., control effect in theory, %) is determined by using Colby's formula and is compared with observed effect:
Colby formula: E=X+Y−X*Y/100
E: expected effect of the composition provided that active ingredient A thereof is in a concentration of a value, and active ingredient B is in a concentration of b value.
X: expected effect provided that usage dose of the active ingredient A is a value.
Y: expected effect provided that usage dose of the active ingredient B is b value.
It is testified that the mixture has a synergistic effect when the actual control effect observed exceeds the expected control effect.

[2] = tested on: pepper phytophthora blight; assay: Field efficacy experiment against the pepper phytophthora blight (Haikou, Hainan); assay type: in vivo, phytophthora capsici; conditions: two foliar sprays 7 days apart, field peppers
Procedure: Test site is Haikou in Hainan. […] Four plots are treated per pesticide and replicates. Each plot has surface area of 20 square meters. The pesticides are applied in the early occurrence of disease and are uniformly sprayed onto the leaves until dripping for the first time. Clean water is used as the blank control. Seven days later, the pesticides are applied for the second time. Disease incidence of the pepper phytophthora blights to the peppers prior to the first pesticide application and that of after 15 days from the second pesticide application are surveyed. Each plot uses a five-point sampling means, surveying two per point, and recording the number of diseased plants, dead plants and apparent withered plants. Disease index and control effect are calculated for each treatment.
Classification method (according to symptom types):
0 level: health, no disease;
1 level: lesions happen only to overground leaves and fruitst;
3 level: brown rot spots happen to overground stems and branches;
5 level: brown rot spots happen to the stem base;
7 level: brown rot spots happen to overground stems, branches and stem base, and some dead branches;
9 level: entire plant dead.
Efficacy calculation method:
Disease index=[Σ(plant quantity in each level×respective level number)×100]/(Total quantity of tested plants×9). […]

SMILES | Actual effect (control effect) ([1]; 1 ppm in spraying droplet) [%] | Actual effect (control effect) ([1]; 10 ppm in spraying droplet) [%] | Actual effect (control effect) ([1]; 30 ppm in spraying droplet) [%] | Actual effect (control effect) ([1]; 50 ppm in spraying droplet) [%] | Actual effect (control effect) ([1]; 100 ppm in spraying droplet) [%] | Control effects ([2]; 20 g a.i./ha) [%] | Actual effect (control effect) ([1]; 20 ppm in spraying droplet) [%] | Control effects ([2]; 250 g a.i./ha) [%]
C=CCc1ccc(O)c(OC)c1 [Eugenol, 4-allyl-2-methoxy-phenol] | 6.2 | 17.6 | 46.3 | 63.8 | 79.5 | 71.6 | – | –
O=[N+]([O-])c1cc(C(F)(F)F)c(Cl)c([N+](=O)[O-])c1Nc1ncc(C(F)(F)F)cc1Cl [Fluazinam, 3-chloro-N-(3-chloro-5-trifluoromethyl-2-pyridyl)-α,α,α-trifluor-2,6-dinitro-p-toluidine] | 11.4 | 31.2 | – | 71.4 | 87.1 | – | 52.9 | 78.7
